27 molecules from patent US8791108B2, “Inhibitors of human immunodeficiency virus replication” (priority 2011, dated 2014) can be followed below.

Structures are written as SMILES. Bounds are passed on as bounds.

For one assay, the system named is recombinant NL-Rluc virus. As to the kind of experiment: Inhibition of HIV replication (NL-RLuc luciferase reporter virus, MT-2 cells). In kind it is cell-based. As to conditions: Human immunodeficiency virus 1, MT2, 120 h, read-out: Activity.
As to `Cc1nc2cc(C(=O)NCCC(C)(C)C)nn2c(-c2cc(F)c3c(c2C)CCCO3)c1[C@H](OC(C)(C)C)C(=O)O` [Example 62, (2S)-2-(tert-butoxy)-2-(2-((3,3-dimethylbutyl)carbamoyl)-7-(8-fluoro-5-methylchroman-6-yl)-5-methylpyrazolo[1,5-a]pyrimidin-6-yl)acetic acid], the EC50 was less than 0.1 µM. As for `Cc1nc2cc(C(=O)NCc3ccc(F)cc3O)nn2c(-c2cc(F)c3c(c2C)CCCO3)c1[C@H](OC(C)(C)C)C(=O)O` [Example 63, (2S)-2-(tert-butoxy)-2-(2-((4-fluoro-2-hydroxybenzyl)carbamoyl)-7-(8-fluoro-5-methylchroman-6-yl)-5-methylpyrazolo[1,4-a]pyrimidin-6yl)acetic acid], the EC50 is less than 0.1 µM.

As to `Cc1nc2cc(C(=O)NCc3cccc(C(F)(F)F)c3)nn2c(-c2cc(F)c3c(c2C)CCCO3)c1[C@H](OC(C)(C)C)C(=O)O` [Example 64], the EC50 is less than 0.1 µM. Same read-out and setting: as for `COc1ccc(CCNC(=O)c2cc3nc(C)c([C@H](OC(C)(C)C)C(=O)O)c(-c4cc(F)c5c(c4C)CCCO5)n3n2)cc1` [Example 65, (2S)-2-(tert-butoxy)-2-(7-(8-fluoro-5-methylchroman-6-yl)-2-((4-methoxyphenethyl)carbamoyl)-5-methylpyrazolo[1,5-a]pyrimidin-6-yl)acetic acid], the figure is less than 0.1 µM. The same measure, in the same setting: the figure for `Cc1nc2cc(C(=O)NCc3ccc(C(F)(F)F)cc3)nn2c(-c2cc(F)c3c(c2C)CCCO3)c1[C@H](OC(C)(C)C)C(=O)O` [Example 66, (2S)-2-(tert-butoxy)-2-(7-(8-fluoro-5-methylchroman-6-yl)-5-methyl-2-((4-(trifluoromethyl)benzyl)carbamoyl)pyrazolo[1,5-a]pyrimidin-6-yl)acetic acid] is less than 0.1 µM; for `Cc1nc2cc(C(=O)NCc3cccc(OC(F)(F)F)c3)nn2c(-c2cc(F)c3c(c2C)CCCO3)c1[C@H](OC(C)(C)C)C(=O)O` [Example 67] it is less than 0.1 µM. Take `Cc1nc2cc(C(=O)NCc3ccc(Oc4ccccc4)cc3)nn2c(-c2cc(F)c3c(c2C)CCCO3)c1[C@H](OC(C)(C)C)C(=O)O` [Example 68, (2S)-2-(tert-butoxy)-2-(7-(8-fluoro-5-methylchroman-6-yl)-5-methyl-2-((4-phenoxybenzyl)carbamoyl)pyrazolo[1,5-a]pyrimidin-6-yl)acetic acid]: the EC50 is less than 0.1 µM. On to `Cc1nc2cc(C(=O)NCc3cccc(-c4ccccc4)c3)nn2c(-c2cc(F)c3c(c2C)CCCO3)c1[C@H](OC(C)(C)C)C(=O)O` [Example 69, (2S)-2-(2-(([1,1′-biphenyl]-3-ylmethyl)carbamoyl)-7-(8-fluoro-5-methylchroman-6-yl)-5-methylpyrazolo[1,5-a]pyrimidin-6-yl)-2-(tert-butoxy)acetic acid], for which the EC50 is less than 0.1 µM. The same measure, in the same setting: the figure for `Cc1nc2cc(C(=O)NCc3ccc(-c4ccccc4)cc3)nn2c(-c2cc(F)c3c(c2C)CCCO3)c1[C@H](OC(C)(C)C)C(=O)O` [Example 70, (2S)-2-(2-(([1,1′-biphenyl]-4-ylmethyl)carbamoyl)-7-(8-fluoro-5-methylchroman-6-yl)-5-methylpyrazolo[1,5-a]pyrimidin-6-yl)-2-(tert-butoxy)acetic acid] is less than 0.1 µM. Still for that read-out and setting: the figure for `COc1cccc(CNC(=O)c2cc3nc(C)c([C@H](OC(C)(C)C)C(=O)O)c(-c4cc(F)c5c(c4C)CCCO5)n3n2)c1` [Example 71] is less than 0.1 µM; for `Cc1nc2cc(C(=O)NCCC3CCN(Cc4ccccc4)CC3)nn2c(-c2cc(F)c3c(c2C)CCCO3)c1[C@H](OC(C)(C)C)C(=O)O` [Example 72, (2S)-2-(2-((2-(1-benzylpiperidin-4-yl)ethyl)carbamoyl)-7-(8-fluoro-5-methylchroman-6-yl)-5-methylpyrazolo[1,5-a]pyrimidin-6-yl)-2-(tert-butoxy)acetic acid] it is 0.1 to 1 µM; for `Cc1nc2cc(C(=O)Nc3ccc(C4CCCCC4)cc3)nn2c(-c2cc(F)c3c(c2C)CCCO3)c1[C@H](OC(C)(C)C)C(=O)O` [Example 73, (2S)-2-(tert-butoxy)-2-(2-((4-cyclohexylphenyl)carbamoyl)-7-(8-fluoro-5-methylchroman-6-yl)-5-methylpyrazolo[1,5-a]pyrimidin-6-yl)acetic acid] it is less than 0.1 µM. Regarding `Cc1nc2cc(C(=O)NCCC3CCCN3C)nn2c(-c2cc(F)c3c(c2C)CCCO3)c1[C@H](OC(C)(C)C)C(=O)O` (stereo partly drawn) [Example 74, (2S)-2-(tert-butoxy)-2-(7-(8-fluoro-5-methylchroman-6-yl)-5-methyl-2-((2-(1-methylpyrrolidin-2-yl)ethyl)carbamoyl)pyrazolo[1,5-a]pyrimidin-6-yl)acetic acid], the EC50 was greater than 1 µM.

Turning to `Cc1nc2cc(C(=O)NCCN3CCCC3)nn2c(-c2cc(F)c3c(c2C)CCCO3)c1[C@H](OC(C)(C)C)C(=O)O` [Example 75, (2S)-2-(tert-butoxy)-2-(7-(8-fluoro-5-methylchroman-6-yl)-5-methyl-2-((2-(pyrrolidin-1-yl)ethyl)carbamoyl)pyrazolo[1,5-a]pyrimidin-6-yl)acetic acid], the EC50 is greater than 1 µM. Regarding `Cc1nc2cc(C(=O)NCCCN3CCCC3=O)nn2c(-c2cc(F)c3c(c2C)CCCO3)c1[C@H](OC(C)(C)C)C(=O)O` [Example 76], the EC50 was greater than 1 µM.

Take `Cc1nc2cc(C(=O)NCC3CCCO3)nn2c(-c2cc(F)c3c(c2C)CCCO3)c1[C@H](OC(C)(C)C)C(=O)O` (stereo partly drawn) [Example 77, (2S)-2-(tert-butoxy)-2-(7-(8-fluoro-5-methylchroman-6-yl)-5-methyl-2-(((tetrahydrofuran-2-yl)methyl)carbamoyl)pyrazolo[1,5-a]pyrimidin-6-yl)acetic acid]: the EC50 fell in the range of 0.1 to 1 µM.

As to `Cc1nc2cc(C(=O)N3CCC(c4ccccc4)CC3)nn2c(-c2cc(F)c3c(c2C)CCCO3)c1[C@H](OC(C)(C)C)C(=O)O` [Example 78, (2S)-2-(tert-butoxy)-2-(7-(8-fluoro-5-methylchroman-6-yl)-5-methyl-2-(4-phenylpiperidine-1-carbonyl)pyrazolo[1,5-a]pyrimidin-6-yl)acetic acid], the EC50 was less than 0.1 µM. The same measure, in the same setting: the figure for `Cc1nc2cc(C(=O)N3CCc4ccccc4C3)nn2c(-c2cc(F)c3c(c2C)CCCO3)c1[C@H](OC(C)(C)C)C(=O)O` [Example 79, (2S)-2-(tert-butoxy)-2-(7-(8-fluoro-5-methylchroman-6-yl)-5-methyl-2-(1,2,3,4-tetrahydroisoquinoline-2-carbonyl)pyrazolo[1,5-a]pyrimidin-6-yl)acetic acid] is less than 0.1 µM; for `Cc1nc2cc(C(=O)N3CCN(c4cccc(Cl)c4)CC3)nn2c(-c2cc(F)c3c(c2C)CCCO3)c1[C@H](OC(C)(C)C)C(=O)O` [Example 80, (2S)-2-(tert-butoxy)-2-(2-(4-(3-chlorophenyl)piperazine-1-carbonyl)-7-(8-fluoro-5-methylchroman-6-yl)-5-methylpyrazolo[1,5-a]pyrimidin-6-yl)acetic acid] it is less than 0.1 µM; for `Cc1nc2cc(C(=O)NCCc3cccc(Cl)c3)nn2c(-c2cc(F)c3c(c2C)CCCO3)c1[C@H](OC(C)(C)C)C(=O)O` [Example 81, (2S)-2-(tert-butoxy)-2-(2-((3-chlorophenethyl)carbamoyl)-7-(8-fluoro-5-methylchroman-6-yl)-5-methylpyrazolo[1,5-a]pyrimidin-6-yl)acetic acid] it is less than 0.1 µM. On the same count and under the same terms, the figure for `Cc1nc2cc(C(=O)NC3CCN(Cc4ccccc4)C3)nn2c(-c2cc(F)c3c(c2C)CCCO3)c1[C@H](OC(C)(C)C)C(=O)O` (stereo partly drawn) [Example 82, (2S)-2-(2-((1-benzylpyrrolidin-3-yl)carbamoyl)-7-(8-fluoro-5-methylchroman-6-yl)-5-methylpyrazolo[1,5-a]pyrimidin-6-yl)-2-(tert-butoxy)acetic acid] is 0.1 to 1 µM; for `CCN1CCN(C(=O)c2cc3nc(C)c([C@H](OC(C)(C)C)C(=O)O)c(-c4cc(F)c5c(c4C)CCCO5)n3n2)CC1` [Example 83, (2S)-2-(tert-butoxy)-2-(2-(4-ethylpiperazine-1-carbonyl)-7-(8-fluoro-5-methylchroman-6-yl)-5-methylpyrazolo[1,5-a]pyrimidin-6-yl)acetic acid] it is greater than 1 µM; for `Cc1nc2cc(C(=O)Nc3cc(-c4ccccc4)nn3C)nn2c(-c2cc(F)c3c(c2C)CCCO3)c1[C@H](OC(C)(C)C)C(=O)O` [Example 84, (2S)-2-(tert-butoxy)-2-(7-(8-fluoro-5-methylchroman-6-yl)-5-methyl-2-((1-methyl-3-phenyl-1H-pyrazol-5-yl)carbamoyl)pyrazolo[1,5-a]pyrimidin-6-yl)acetic acid] it is less than 0.1 µM. `Cc1nccc(-c2cccc(NC(=O)c3cc4nc(C)c([C@H](OC(C)(C)C)C(=O)O)c(-c5cc(F)c6c(c5C)CCCO6)n4n3)c2)n1` [Example 85]: the EC50 is less than 0.1 µM. `Cc1nc2cc(C(=O)N3CCC(c4ccc(Cl)cc4)CC3)nn2c(-c2cc(F)c3c(c2C)CCCO3)c1[C@H](OC(C)(C)C)C(=O)O` [Example 86, (2S)-2-(tert-butoxy)-2-(2-(4-(4-chlorophenyl)piperidine-1-carbonyl)-7-(8-fluoro-5-methylchroman-6-yl)-5-methylpyrazolo[1,5-a]pyrimidin-6-yl)acetic acid]: the EC50 is less than 0.1 µM. The same measure, in the same setting: the figure for `Cc1nc2cc(C(=O)N3CCN(c4ccc(F)cc4)CC3)nn2c(-c2cc(F)c3c(c2C)CCCO3)c1[C@H](OC(C)(C)C)C(=O)O` [Example 87, (2S)-2-(tert-butoxy)-2-(7-(8-fluoro-5-methylchroman-6-yl)-2-(4-(4-fluorophenyl)piperazine-1-carbonyl)-5-methylpyrazolo[1,5-a]pyrimidin-6-yl)acetic acid] is less than 0.1 µM; for `Cc1nc2cc(C(=O)NCCN3CCOCC3)nn2c(-c2cc(F)c3c(c2C)CCCO3)c1[C@H](OC(C)(C)C)C(=O)O` [Example 88, (2S)-2-(tert-butoxy)-2-(7-(8-fluoro-5-methylchroman-6-yl)-5-methyl-2-((2-morpholinoethyl)carbamoyl)pyrazolo[1,5-a]pyrimidin-6-yl)acetic acid] it is greater than 1 µM.

Staying with this assay, now noted: Human immunodeficiency virus 1, MT2, 120 h, read-out: EC50 μM.
`Cc1nc2cc(C(=O)NCCC(C)(C)C)nn2c(-c2cc(F)c3c(c2C)CCCO3)c1[C@H](OC(C)(C)C)C(=O)O` [Example 62, (2S)-2-(tert-butoxy)-2-(2-((3,3-dimethylbutyl)carbamoyl)-7-(8-fluoro-5-methylchroman-6-yl)-5-methylpyrazolo[1,5-a]pyrimidin-6-yl)acetic acid]: the EC50 stood at 0.013 µM. For `Cc1nc2cc(C(=O)NCc3cccc(OC(F)(F)F)c3)nn2c(-c2cc(F)c3c(c2C)CCCO3)c1[C@H](OC(C)(C)C)C(=O)O` [Example 67], the EC50 was 0.009 µM. Still for that read-out and setting: as for `Cc1nc2cc(C(=O)NCCC3CCN(Cc4ccccc4)CC3)nn2c(-c2cc(F)c3c(c2C)CCCO3)c1[C@H](OC(C)(C)C)C(=O)O` [Example 72, (2S)-2-(2-((2-(1-benzylpiperidin-4-yl)ethyl)carbamoyl)-7-(8-fluoro-5-methylchroman-6-yl)-5-methylpyrazolo[1,5-a]pyrimidin-6-yl)-2-(tert-butoxy)acetic acid], the figure is 0.668 µM; as for `Cc1nccc(-c2cccc(NC(=O)c3cc4nc(C)c([C@H](OC(C)(C)C)C(=O)O)c(-c5cc(F)c6c(c5C)CCCO6)n4n3)c2)n1` [Example 85], 0.016 µM.
